These results are taken from ChEMBL document CHEMBL6092218 (J Med Chem, 2024).

Data set [1] is described as follows: Metabolic stability in human liver microsomes assessed as apparent intrinsic clearance at 1 uM measured upto 60 mins in presence of NADPH by LC-MS/MS analysis. The format is ADME, Microsome. The following applies: read-out: CLH.
The next data set addresses Cytochrome P450 3A4 (Homo sapiens, UniProt P08684). Description: Inhibition of CYP3A4 in human liver microsomes using midazolam as substrate incubated for 4 mins by LC-MS/SM analysis.
Data set [2] in a line: Apparent permeability of compound in dog RRCK cells measured after 1.5 hrs by LC-MS/MS analysis. The following applies: MDCK.
Data set [3] in a line: Bioavailability in mouse at 30 mg/kg, po measured upto 24 hrs by LC-MS/MS analysis. The class given is ADME, organism-based. The following applies: in vivo.
Data set [4] relates to MIA PaCa-2. Description: Antiproliferative activity against human MIA PaCa-2 cells incubated for 6 days by CyQUANT cell proliferation assay. The format is functional, cell-based. The following applies: MIA PaCa-2, 144 h.
Data set [5] in a line: Half-life in mouse at 30 mg/kg, po measured upto 24 hrs by LC-MS/MS analysis. The format is ADME, organism-based. Conditions: in vivo.
A short description of data set [6]: Volume of distribution at steady state in mouse at 30 mg/kg, po measured upto 24 hrs by LC-MS/MS analysis. Conditions: in vivo. The class given is ADME, organism-based.
A short description of data set [7]: Clearance in mouse blood at 30 mg/kg, po measured upto 24 hrs by LC-MS/MS analysis. The class given is ADME, organism-based. Conditions: whole blood.
In data set [8] the test system is MIA PaCa-2. Put plainly: Antitumor activity against human MIA PaCa-2 cells xenografted in NSG mouse assessed as time duration of coverage of MIA PaCa-2 IC50 in plasma at 10 mg/kg, po bid. The class given is functional.
In data set [9] the test system is MIA PaCa-2. Description: Antitumor activity against human MIA PaCa-2 cells xenografted in NSG mouse assessed as tumor growth inhibition at 15 mg/kg, po qd measured after 24 days by caliper method. The format is functional. Conditions: MIA PaCa-2, 576 h, time 24 day, read-out: TGI.
In data set [10] the test system is MIA PaCa-2. Description: Antitumor activity against human MIA PaCa-2 cells xenografted in NSG mouse assessed as tumor growth inhibition at 30 mg/kg, po qd measured after 24 days by caliper method. The format is functional. The following applies: MIA PaCa-2, 576 h, time 24 day, read-out: TGI.
A short description of data set [11]: Toxicity in NSG mouse xenografted in with human MIA PaCa-2 cells assessed as body weight loss at 15 to 30 mg/kg, po qd […]. The class given is organism-based. The following applies: in vivo, dose 15-30 mg/kg.
The test system of data set [12] is MIA PaCa-2. Description: Antitumor activity against human MIA PaCa-2 cells xenografted in NSG mouse assessed as time duration of coverage of MIA PaCa-2 IC50 in plasma at 30 mg/kg, po qd. The format is functional.
In data set [13] the test system is MIA PaCa-2. Put plainly: Antitumor activity against human MIA PaCa-2 cells xenografted in NSG mouse assessed as tumor growth inhibition at 15 mg/kg, po bid measured after 24 days by caliper method. The class given is functional. The following applies: MIA PaCa-2, 576 h, time 24 day, read-out: TGI.
In data set [14] the test system is MIA PaCa-2. Description: Antitumor activity against human MIA PaCa-2 cells xenografted in NSG mouse assessed as time duration of coverage of MIA PaCa-2 IC90 in plasma at 10 mg/kg, po bid. The class given is functional.
For data set [15], the system named is MIA PaCa-2. Put plainly: Antitumor activity against human MIA PaCa-2 cells xenografted in NSG mouse assessed as time duration of coverage of MIA PaCa-2 IC90 in plasma at 15 mg/kg, po qd. The format is functional.
Data set [16] has as its system MIA PaCa-2. Description: Antitumor activity against human MIA PaCa-2 cells xenografted in NSG mouse assessed as time duration of coverage of MIA PaCa-2 IC50 in plasma at 15 mg/kg, po bid. The class given is functional.
Data set [17] relates to MIA PaCa-2. Put plainly: Antitumor activity against human MIA PaCa-2 cells xenografted in NSG mouse assessed as tumor growth inhibition at 10 mg/kg, po bid measured after 24 days by caliper method. The class given is functional. The following applies: MIA PaCa-2, 576 h, time 24 day, read-out: TGI.
In data set [18] the test system is MIA PaCa-2. Put plainly: Antitumor activity against human MIA PaCa-2 cells xenografted in NSG mouse assessed as time duration of coverage of MIA PaCa-2 IC50 in plasma at 15 mg/kg, po qd. The format is functional.
Data set [19] relates to MIA PaCa-2. Put plainly: Antitumor activity against human MIA PaCa-2 cells xenografted in NSG mouse assessed as time duration of coverage of MIA PaCa-2 IC90 in plasma at 30 mg/kg, po qd. The format is functional.
The nature of data set [20]: Toxicity in NSG mouse xenografted in with human MIA PaCa-2 cells assessed as body weight loss at 10 to 15 mg/kg, po bid […]. Conditions: in vivo, dose 10-15 mg/kg. The class given is organism-based.
Data set [21] has as its system MIA PaCa-2. Put plainly: Antitumor activity against human MIA PaCa-2 cells xenografted in NSG mouse assessed as time duration of coverage of MIA PaCa-2 IC90 in plasma at 15 mg/kg, po bid. The format is functional.
For data set [22], the system named is MIA PaCa-2. Put plainly: Antitumor activity against human MIA PaCa-2 cells xenografted in NSG mouse assessed as tumor stasis at 30 mg/kg, po qd measured after 24 days. The following applies: time 24.0 day. The class given is functional, organism-based.
Data set [23] has as its system MIA PaCa-2. Put plainly: Antitumor activity against human MIA PaCa-2 cells xenografted in po dosed NSG mouse assessed as reduction in tumor volume measured after 24 days by caliper method. The class given is functional, organism-based. Conditions: time 24.0 day.
Data set [24] has as its system MIA PaCa-2. Put plainly: Antitumor activity against human MIA PaCa-2 cells xenografted in NSG mouse assessed as tumor stasis at 15 mg/kg, po BID measured after 24 days. Conditions: time 24.0 day. The format is functional, organism-based.

pIC50: −log10 of the molar value. Activity calls are given as the source filed them. The calls are words filed in the database; no cut-off is given here.

Cytochrome P450 3A4, sequence (P08684 whole entry): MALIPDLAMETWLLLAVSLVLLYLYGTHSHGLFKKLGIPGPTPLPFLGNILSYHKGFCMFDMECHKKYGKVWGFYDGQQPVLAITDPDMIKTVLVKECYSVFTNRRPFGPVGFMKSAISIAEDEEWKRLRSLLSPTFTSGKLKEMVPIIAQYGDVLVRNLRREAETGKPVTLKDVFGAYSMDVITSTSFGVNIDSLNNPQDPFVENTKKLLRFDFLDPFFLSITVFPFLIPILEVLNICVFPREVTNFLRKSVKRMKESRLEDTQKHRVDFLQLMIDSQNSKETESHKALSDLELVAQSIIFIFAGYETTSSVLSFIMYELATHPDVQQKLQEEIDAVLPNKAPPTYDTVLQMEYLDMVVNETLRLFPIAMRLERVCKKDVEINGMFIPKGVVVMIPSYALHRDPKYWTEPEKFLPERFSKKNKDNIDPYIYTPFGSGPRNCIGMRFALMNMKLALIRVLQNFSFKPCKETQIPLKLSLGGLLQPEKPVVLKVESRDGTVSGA

In the case of `Cc1cn(C)nc1Nc1cc2cc(-c3cn[nH]c3C)nc(N)c2cn1`, the microsomal CLint at 1 µM in data set [1] was 31.8 µL/min/mg. Besides, the pIC50 against Cytochrome P450 3A4 was 4.84. Further, in data set [2], the apparent permeability (Papp) at 1.5 h amounted to 10.8 ×10⁻⁶ cm/s.
`CCn1nc(Nc2cc3cc(-c4cnnn4C)nc(N)c3cn2)c2c1[C@@H]1CC[C@H]2C(=O)N1C1CCC1`: in data set [1], the microsomal CLint at 1 µM worked out at 76.8 µL/min/mg. For the same molecule, the Papp at 1.5 h in data set [2] turned out to be 5.2 ×10⁻⁶ cm/s.
Turning to `Cc1cn(C)nc1Nc1cc2cc(-c3cnccn3)nc(N)c2cn1`, the microsomal CLint at 1 µM in data set [1] turned out to be 21.2 µL/min/mg.
For the molecule `CC[C@@](C)(N)c1ccnc(Nc2cc3cc(-c4cnnn4C)nc(N)c3cn2)c1`, in data set [1], the microsomal CLint at 1 µM is below 7 µL/min/mg. In addition, the bioavailability in data set [3] was 3%. The same molecule showed a negative logarithm of the IC50 (pIC50) in the data set with MIA PaCa-2 [4] of 8.19. Moreover, the half-life in data set [5] was 3.8 h. The molecule further returned a Vdss in [6] of 2.8 L/kg. Also, the apparent permeability (Papp) at 1.5 h in data set [2] worked out at 6.4 ×10⁻⁶ cm/s. The CL/F in data set [7] was 49.4 mL/min/kg.
On to `CCC(N)(CC)c1ccnc(Nc2cc3cc(N4CCOC4=O)nc(N)c3cn2)c1`, for which the microsomal CLint at 1 µM in data set [1] was determined as 19.4 µL/min/mg. In addition, the pIC50 in the data set on MIA PaCa-2 [4] is 7.89. Further, the Papp at 1.5 h in data set [2] was 12.3 ×10⁻⁶ cm/s.
On to `Cn1nncc1-c1cc2cc(Nc3cc(C(C)(C)N)ccn3)ncc2c(N)n1`, for which the microsomal CLint at 1 µM in data set [1] was below 7 µL/min/mg. Further, the apparent permeability coefficient (Papp) at 1.5 h in data set [2] amounted to 1.7 ×10⁻⁶ cm/s.
As for `Cn1nncc1-c1cc2cc(Nc3cc(C(C)(C)O)ccn3)ncc2c(N)n1`, in data set [1], the microsomal CLint at 1 µM is below 7 µL/min/mg. Also, the Papp at 1.5 h in data set [2] worked out at 13.3 ×10⁻⁶ cm/s.
For the molecule `Cc1cn(C)nc1Nc1cc2cc(-c3cnnn3C)nc(N)c2cn1`, the microsomal CLint at 1 µM in [1] is 15.3 µL/min/mg.
Take `Cc1cn(C)nc1Nc1cc2cc(-c3sncc3C)nc(N)c2cn1`: the microsomal CLint at 1 µM in data set [1] stood at 189 µL/min/mg.
Turning to `Cc1cn(C)nc1Nc1cc2cc(-c3cncn3C)nc(N)c2cn1`, the microsomal CLint at 1 µM in data set [1] came out at 8.2 µL/min/mg.
On to `CCC(N)(CC)c1ccnc(Nc2cc3cc(-c4cnnn4C)nc(N)c3cn2)c1`, for which, in data set [1], the microsomal CLint at 1 µM stood at 41.1 µL/min/mg. Also, the “T>IC50” value in the data set on MIA PaCa-2 [8] turned out to be 21 h; in the data set with MIA PaCa-2 [12], 24 h; in the data set with MIA PaCa-2 [16], 24 h; in the data set on MIA PaCa-2 [18], 15 h. Further, the inhibition in vivo at 15 mg/kg with MIA PaCa-2 [9] amounted to 35%; with MIA PaCa-2 [13], 103%. The bioavailability in data set [3] is 96%. Also, the inhibition in vivo at 30 mg/kg in the data set on MIA PaCa-2 [10] is 106%. Also, the Activity entry in [11] is “Non-toxic”; in [20], “Non-toxic”; in the data set with MIA PaCa-2 [23] it was “Dose-dependent-effect”. The negative-log IC50 (pIC50) with MIA PaCa-2 [4] was 8.52. In addition, the “T>IC90” value came to 16 h in the data set with MIA PaCa-2 [14], 9 h in the data set with MIA PaCa-2 [15], 16 h in the data set with MIA PaCa-2 [19] and 19 h with MIA PaCa-2 [21]. Also, the half-life in [5] is 12 h. Moreover, the inhibition in vivo at 10 mg/kg with MIA PaCa-2 [17] came out at 58%. In data set [6], this molecule came in with a Vdss of 4.9 L/kg. The outcome in the data set with MIA PaCa-2 [22] and in the data set with MIA PaCa-2 [24] was Active. The Papp at 1.5 h in data set [2] worked out at 11.1 ×10⁻⁶ cm/s. This molecule also displayed a CL/F in data set [7] of 109 mL/min/kg.
Regarding `Cn1nncc1-c1cc2cc(Nc3nn(C)c4c3[C@@H]3CC[C@H]4N(C4CCC4)C3)ncc2c(N)n1`, in data set [1], the microsomal CLint at 1 µM turned out to be 201 µL/min/mg. Further, the apparent permeability (Papp) at 1.5 h in data set [2] turned out to be 5.2 ×10⁻⁶ cm/s.
`Cc1cn(C)nc1Nc1cc2cc(C3CCc4nccn43)nc(N)c2cn1` (centres undefined): the microsomal CLint at 1 µM in [1] was determined as 28.6 µL/min/mg. The same molecule gave a pIC50 against Cytochrome P450 3A4 below 4.65. In addition, the Papp at 1.5 h in [2] turned out to be 44.4 ×10⁻⁶ cm/s.
Take `CC[C@](C)(N)c1ccnc(Nc2cc3cc(-c4cnnn4C)nc(N)c3cn2)c1`: the microsomal CLint at 1 µM in data set [1] is below 7 µL/min/mg. In data set [3], this molecule gave a bioavailability of 7%. The molecule further showed a pIC50 with MIA PaCa-2 [4] of 7.84. For the same molecule, the half-life in [5] was 0.6 h. The Vdss in data set [6] came out at 3.2 L/kg. The Papp at 1.5 h in data set [2] amounted to 5.6 ×10⁻⁶ cm/s. In [7], this molecule had a CL/F of 124 mL/min/kg.
